Experimental data published in US20230242521A1, “PHARMACEUTICAL COMPOSITION FOR PREVENTING OR TREATING PANCREATIC CANCER ASSOCIATED WITH RON MUTATION AND METHOD USING SAME” (WELLMARKER BIO CO., LTD., priority 2020, published 2023).
Where a name gives a salt, the structure may show the parent alone.

Legend:
[1] = test system: Mia-PaCa2 pancreatic cancer cell line (mutation RONΔ160 type); assay: MTS assay, cell growth inhibitory ability, Mia-PaCa2; format: cell-based; details: Homo sapiens; Mia-PaCa-2, RON mutation Δ160, cultured 72 hours
Experimental: (§1) In order to compare and confirm the cell growth inhibitory ability of Examples 1 (WM-S1-030) to 5 and positive control 1 (BMS-777607) in two pancreatic cancer cell lines ofa mutation RONΔ155 type (Panc-1 and Capan-1) and one pancreatic cancer cell line of a mutation RONΔ160 type (Mia-PaCa2), MTS assay was carried out.
(§2) For MTS assay, 1,000 cells of each pancreatic cancer cell line per well were seeded in a 96-well-plate, and 24 hours later, treated with the compounds of Examples 1 to 5 and positive control 1 at various concentrations (0.000001 μM to 10 μM) in 100 μL of 10% FBS-RPMI medium (Welgene) per each well. Thereafter, the cells were cultured for 72 hours. 20 μL of MTS solution (Promega) was added and cultured for 2 hours, and then absorbance was measured at 490 nm. The cytotoxicity was analyzed by deriving the IC50 for the compounds of Examples 1 to 5 and positive control 1 using GraphPad Prism™ 5.

[2] = test system: Mia-PaCa2 (mRONΔ160) pancreatic cancer cell line transplanted tumor; assay: Tumor growth inhibition in Mia-PaCa2 transplanted mouse model; format: in vivo; details: orally once a day for 4 weeks; for Tumor growth inhibition rate (TGI, %): 30 mg/kg, BALB/c-nude mice with Mia-PaCa2 tumor; for tumor growth inhibition (in words): 30 mpk, Mia-PaCa2 transplanted mice
Source text: FIG. 2 illustrates the results obtained by confirming the tumor growth rate for a mouse model transplanted with the Mia-PaCa2 cell line, which is a pancreatic cancer cell line of a mutation RONΔ160 type, having received Example 1 (WM-S1-030) at a dose of 30 mpk and positive control 1 (BMS-777607) at a dose of 30 mpk. It was confirmed whether tumor growth was inhibited by administering Example 1 (WM-S1-030) at a dose of 30 mpk to a mouse model transplanted with Mia-PaCa2, which is a pancreatic cancer cell line of a mutation RONΔ160 type. Specifically, 5-week-old female BALB/c-nude mice were purchased and acclimatized for 1 week. Thereafter, Mia-PaCa2 (2×10^6 cells/mouse), a pancreatic cancer cell line of a mutation RONΔ160 type, was diluted in PBS (phosphate buffered saline) and Matrigel, and 100 μL was injected subcutaneously into the right dorsal side of the mouse. When the size of the tumor reached about 100 mm^3, the negative control (excipient) and Example 1 were orally administered. In this case, positive control 1 (BMS-777607) was administered at a dose of 30 mpk. The drug was administered once a day for 4 weeks, and the tumor size and body weight were measured twice a week. After the drug administration was completed, the mice were euthanized, the tumor was extracted, and the weight was measured.

[3] = test system: Panc-1 pancreatic cancer cell line (mutation RONΔ155 type); assay: MTS assay, cell growth inhibitory ability, Panc-1; format: cell-based; details: Homo sapiens; Panc-1, RON mutation Δ155, cultured 72 hours
Experimental: as §1, §2

[4] = test system: cyclin D1; assay: Immunochemical staining of tumor tissue, Mia-PaCa2 transplanted mouse model: cyclin D1; format: in vivo; details: 10 mpk, 30 mpk, Mia-PaCa2 transplanted mice
Experimental: (§3) FIG. 3 illustrates the results obtained by immunochemical staining of the tumor tissue for a mouse model transplanted with the Mia-PaCa2 cell line, which is a pancreatic cancer cell line of a mutation RONΔ160 type, having received Example 1 (WM-S1-030) at a dose of 10 mpk or 30 mpk and the positive control (BMS-777607) at a dose of 30 mpk.
(§4) Example 1 (WM-S1-030) was administered at each concentration (10 mpk, 30 mpk) and positive control 1 (BMS-777607) was administered at a dose of 30 mpk to a mouse model transplanted with the Mia-PaCa2 cell line, which is a pancreatic cancer cell line of a mutation RONΔ160 type. The tumor was extracted, and the expression changes of the proteins were analyzed by immunochemical staining.
(§5) Specifically, paraffin slides were prepared using tissues isolated from the sacrificed mice. The tissue sections were deparaffinized and rehydrated, immersed in the target recovery buffer 1× (ScyTek Laboratories, Cat #CBB999) and heated for 15 minutes to perform an antigen recovery process. After the reaction, the tissue sections were washed in Tris buffered saline-0.05% Tween 20 (TBS-T) (T&I, BTT-9310) for 5 minutes, and then the reaction was performed with a non-specific antibody response blocking reagent (vector, SP-5035) for 1 hour. […]

[5] = test system: Capan-1 pancreatic cancer cell line (mutation RONΔ155 type); assay: MTS assay, cell growth inhibitory ability, Capan-1; format: cell-based; details: Homo sapiens; Capan-1, RON mutation Δ155, cultured 72 hours
Experimental: as §1, §2

[6] = test system: cleaved caspase 3; assay: Immunochemical staining of tumor tissue, Mia-PaCa2 transplanted mouse model: cleaved caspase 3; format: in vivo; details: 10 mpk, 30 mpk, Mia-PaCa2 transplanted mice
Experimental: as §3, §4, §5

[7] = test system: pTyr-mRON; assay: Immunochemical staining of tumor tissue, Mia-PaCa2 transplanted mouse model: pTyr-mRON; format: in vivo; details: 10 mpk, 30 mpk, Mia-PaCa2 transplanted mice
Experimental: as §3, §4, §5

[8] = test system: pancreatic cancer cell lines of a mutation RON type (Panc-1, Capan-1, Mia-PaCa2); assay: Cell killing efficacy, trypan blue exclusion assay; format: cell-based; details: 1 μM and 5 μM, 48 hours
Experimental: FIGS. 1A to IC illustrate the results obtained by comparing and confirming the cell killing efficacy for the Panc-1 and Capan-1 cell lines, which are pancreatic cancer cell lines of a mutation RONΔ155 type, and the Mia-PaCa2 cell line, which is a pancreatic cancer cell line of a mutation RONΔ160 type, having been treated with the compounds of Examples 1 (WM-S1-030) to 5 and positive control 1 (BMS-777607) at a concentration of 1 μM and 5 μM, respectively.
Two pancreatic cancer cell lines of a mutation RONΔ155 type (Panc-1 and Capan-1) and one pancreatic cancer cell line of a mutation RONΔ160 type (Mia-PaCa2) were dispensed, and 24 hours later, treated with 1 μM and 5 μM of the compounds of Examples 1 (WM-S1-030) to 5 and positive control 1 (BMS-777607), respectively, while replacing the medium. After 48 hours, the cells and the cell fluid were harvested (1,500 rpm, 4 minutes), and live cells and dead cells were quantified through trypan blue (15250-061, Gibco) exclusion assay. Statistical analysis was performed using T-test in Excel.

[9] = test system: pancreatic cancer cell lines of mutation RONΔ155 type (Panc-1 and Capan-1) and RONΔ160 type (Mia-PaCa2); assay: MTS assay, text summary over the three pancreatic cancer cell lines; format: cell-based; details: Panc-1, Capan-1, Mia-PaCa2; 0.000001 μM to 10 μM, 72 hours
Experimental: as §1, §2

Compound | IC50 [1] [nM] | IC50 [3] [nM] | IC50 [5] [nM] | Tumor growth inhibition rate (TGI, %) [2] [%] | tumor growth inhibition (in words) [2] | expression of cyclin D1 (PD marker) in tumor tissue [4] | expression of cleaved caspase 3 in tumor tissue [6] | expression of pTyr-mRON in tumor tissue [7] | cell death / response to the drug (trypan blue exclusion) [8] | response to the drug / cell growth inhibition (MTS) [9]
CCOc1ccn(-c2ccc(F)cc2)c(=O)c1C(=O)Nc1ccc(Oc2ccnc3cc(-c4ccc(CN5CCOCC5)cn4)sc23)c(F)c1.Cl [Example 1, 4-ethoxy-N-[3-fluoro-4-({2-[5-(morpholinomethyl)pyridin-2-yl]thieno[3,2-b]pyridin-7-yl}oxy)phenyl]-1-(4-fluorophenyl)-2-oxo-1,2-dihydropyridine-3-carboxamide hydrochloride] | 620 | 2440 | 630 | 57.2 ± 3.1 | tumor growth was significantly inhibited | the expression of cyclin D1, a PD marker, was decreased | the expression of cleaved caspase 3 was induced | the expression of pTyr-mRON was decreased |  | 
CCOc1ccn(-c2ccccc2)c(=O)c1C(=O)Nc1ccc(Oc2ccnc3cc(-c4ccc(CNCCOC)cn4)sc23)c(F)c1 [Example 2, 4-ethoxy-N-(3-fluoro-4-{[2(5-{[(2-methoxyethyl)amino]methyl}pyridin-2-yl)thieno[3,2-b]pyridin-7-yl]oxy}phenyl)-2-oxo-1-phenyl-1,2-dihydropyridine-3-carboxamide hydrochloride] | 1840 | 3880 | 1540 |  |  |  |  |  |  | 
CCOc1ccn(-c2ccc(F)cc2)c(=O)c1C(=O)Nc1ccc(Oc2ccnc(N)c2Cl)c(F)c1 [Positive control 1, N-{4-[(2-amino-3-chloro-4-pyridinyl)oxy]-3-fluorophenyl}-4-ethoxy-1-(4-fluorophenyl)-2-oxo-1,2-dihydro-3-pyridinecarboxamide, reference compound] | 6060 | > 10000 | > 10000 | 4.7 ± 7.4 | tumor growth was inhibited relatively little |  |  |  | the response to the drug was low | the response to the drug was low

These reach a lower IC50 [1]. Values come first.

IC50 [1] [nM] | IC50 [3] [nM] | IC50 [5] [nM] | Compound | Tumor growth inhibition rate (TGI, %) [2] [%] | tumor growth inhibition (in words) [2] | expression of cyclin D1 (PD marker) in tumor tissue [4] | expression of cleaved caspase 3 in tumor tissue [6] | expression of pTyr-mRON in tumor tissue [7] | cell death / response to the drug (trypan blue exclusion) [8] | response to the drug / cell growth inhibition (MTS) [9]
250 | 1090 | 370 | CCOc1ccn(-c2ccccc2)c(=O)c1C(=O)Nc1ccc(Oc2ccnc3cc(-c4ccc(CN5CCN(C)CC5)cn4)sc23)c(F)c1 [Example 3, 4-ethoxy-N-{3-fluoro-4-[(2-(5-[(-methylpiperazin-1-yl)methyl]pyridin-2-yl)thieno[3,2-b]pyridin-7-yl)oxy]phenyl}-2-oxo-1-phenyl-1,2-dihydropyridine-3-carboxamide hydrochloride] |  |  |  |  |  |  | 
370 | 460 | 320 | COc1cc2c(Oc3ccc(NC(=O)c4c5c(cn(-c6ccc(F)cc6)c4=O)CCO5)cc3F)ccnc2cc1OCCN1CCOCC1 [Example 4, N-(3-fluoro-4-{[6-methoxy-7-(2-morpholinoethoxy)quinolin-4-yl]oxy}phenyl)-5-(4-fluorophenyl)-6-oxo-2,3,5,6-tetrahydrofuro[3,2-c]pyridine-7-carboxamide] |  |  |  |  |  |  | 
150 | 310 | 170 | COc1cc2c(Oc3ccc(NC(=O)c4c5c(cn(-c6ccc(F)cc6)c4=O)CCO5)cc3F)ccnc2cc1OCCCN1CC(C#N)C1 [Example 5, N-[4-({7-[3-(3-cyanoazetidin-1-yl)propoxy]-6-methoxyquinolin-4-yl}oxy)-3-fluorophenyl]-5-(4-fluorophenyl)-6-oxo-2,3,5,6-tetrahydrofuro[3,2-c]pyridine-7-carboxamide] |  |  |  |  |  |  | 
